Experimental data taken from US11912693B2, “Compounds for modulating S1P1 activity and methods of using the same” (TREVENA, INC., priority 2017, dated 2024).

Tests used:
[1] = biological target: T1, human sphingosine-1-phosphate receptor 1 (S1P1) (Homo sapiens (Human), UniProt P21453); test: Inhibition of cAMP production (HTRF cAMP HiRange), S1P1 CHO-K1 cells; assay type: cell-based; settings: for hS1P1 cAMP pEC50: inhibition of cAMP production, S1P1 CHO-K1 cells; for Emax: CHO-K1, efficacy (SPAN) normalized to fingolimod, read-out: hS1P1 cAMP SPAN
Procedure, shortened: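 CHO-K1 cells stably co-expressing human S1P1 (C-terminal Prolink tag) and EA-β-arrestin2 were grown in AssayComplete Media 6 at 37° C. and 5% CO2, plated, and incubated overnight. Agonist-driven inhibition of intracellular cAMP was read by TR-FRET with the HTRF cAMP HiRange kit on a PheraStar reader. Potency is pEC50, and efficacy (SPAN) is normalized to fingolimod.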
Target sequence in this assay (P21453 whole entry, looked up): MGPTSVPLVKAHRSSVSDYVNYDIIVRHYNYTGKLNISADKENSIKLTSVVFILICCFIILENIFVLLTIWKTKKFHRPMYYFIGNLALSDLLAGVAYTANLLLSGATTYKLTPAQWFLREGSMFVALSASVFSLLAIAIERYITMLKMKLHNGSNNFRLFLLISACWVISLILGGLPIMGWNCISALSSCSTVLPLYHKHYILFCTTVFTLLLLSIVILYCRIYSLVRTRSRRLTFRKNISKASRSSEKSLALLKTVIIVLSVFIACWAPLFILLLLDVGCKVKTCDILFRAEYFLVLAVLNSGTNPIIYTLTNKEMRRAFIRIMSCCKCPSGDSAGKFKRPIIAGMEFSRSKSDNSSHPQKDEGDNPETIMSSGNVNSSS

[2] = biological target: T1, human sphingosine-1-phosphate receptor 1 (S1P1); test: β-Arrestin2 recruitment assay (PathHunter), S1P1 CHO-K1 cells; assay type: cell-based; settings: for hS1P1 B-arrestin2 pEC50: β-arrestin2 recruitment, S1P1 CHO-K1 cells; for Emax: CHO-K1, efficacy (SPAN) normalized to fingolimod, read-out: hS1P1 B-arrestin2 SPAN
Procedure, shortened: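 Enzyme-fragment complementation read-out: agonist-driven β-arrestin2 binding to ProLink-tagged human S1P1 in stable CHO-K1 cells restores β-galactosidase, measured 1 h at room temperature after a 60 min 37° C. compound incubation. Potency as pEC50, efficacy relative to fingolimod (SPAN).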
Target sequence in this assay (P21453 whole entry, looked up): as above
Target sequence in this assay (P32121 whole entry partner, looked up): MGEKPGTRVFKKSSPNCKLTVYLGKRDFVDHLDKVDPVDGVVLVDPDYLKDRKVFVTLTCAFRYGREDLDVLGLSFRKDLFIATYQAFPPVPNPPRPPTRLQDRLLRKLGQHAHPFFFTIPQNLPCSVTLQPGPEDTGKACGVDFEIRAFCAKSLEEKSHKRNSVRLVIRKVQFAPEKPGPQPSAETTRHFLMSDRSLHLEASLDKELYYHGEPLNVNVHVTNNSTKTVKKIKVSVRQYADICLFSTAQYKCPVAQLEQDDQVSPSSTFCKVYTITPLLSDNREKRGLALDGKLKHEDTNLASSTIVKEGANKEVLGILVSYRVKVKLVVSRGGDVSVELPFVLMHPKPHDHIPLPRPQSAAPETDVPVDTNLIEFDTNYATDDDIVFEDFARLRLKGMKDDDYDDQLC

Structure (SMILES) | hS1P1 cAMP pEC50 [1] | hS1P1 B-arrestin2 pEC50 [2] | Emax [1] [%] | Emax [2] [%]
CC(C)n1nnc2cc(-c3nc(-c4cncnc4)no3)ccc21 [Compound 249, 1-(propan-2-yl)-5-[3-(pyrimidin-5-yl)-1,2,4-oxadiazol-5-yl]-1H-1,2,3-benzotriazole] | <6.5 | <5 | – | –
CC1(C)CC(=O)c2cc(-c3nc(-c4ccncc4)no3)ccc2O1 [Compound 291, 2,2-dimethyl-6-[3-(pyridin-4-yl)-1,2,4-oxadiazol-5-yl]-3,4-dihydro-2H-1-benzopyran-4-one] | <6.5 | <5 | < 75 | < 75
FC(F)(F)c1cccc(-c2noc(-c3ccc4c(c3)nnn4C3CCCC3)n2)c1 [Compound 118, 1-cyclopentyl-5-{3-[3-(trifluoromethyl)phenyl]-1,2,4-oxadiazol-5-yl}-1H-1,2,3-benzotriazole] | <6.5 | <5 | – | –
CC(C)n1ccc2cc(-c3nc(-c4cccc5c4OCCC5)no3)ccc21 [Compound 327, 3-chroman-8-yl-5-(1-isopropylindol-5-yl)-1,2,4-oxadiazole] | <6.5 | >5 | – | –
CC(C)n1ccc2cc(-c3noc(-c4cccc(F)c4)n3)ccc21 [Compound 394, 5-(3-fluorophenyl)-3-(1-isopropyl-1H-indol-5-yl)-1,2,4-oxadiazole] | <6.5 | >5 | – | –
CCC1(CC)CC(=O)c2cc(-c3nc(-c4ccc(S(=O)(=O)N(C)C)cc4)no3)ccc2O1 [Compound 30, 4-(5-(2,2-diethyl-4-oxochroman-6-yl)-1,2,4-oxadiazol-3-yl)-N,N-dimethylbenzenesulfonamide] | <6.5 | <5 | – | –
CC(C)n1nnc2cc(-c3noc(-c4ccccc4Br)n3)ccc21 [Compound 43, 5-(2-bromophenyl)-3-(1-isopropyl-1H-benzo[d][1,2,3]triazol-5-yl)-1,2,4-oxadiazole] | >6.5 | >5 | – | –
CC1(C)Oc2ccc(-c3nc(-c4ccncc4)no3)cc2C1=O [Compound 480, 2,2-dimethyl-5-[3-(pyridin-4-yl)-1,2,4-oxadiazol-5-yl]-2,3-dihydro-1-benzofuran-3-one] | <6.5 | <5 | – | –
Cc1ccccc1-c1nc(-c2ccc3c(c2)nnn3C(C)(C)CO)no1 [Compound 609, 2-methyl-2-(5-(5-(o-tolyl)-1,2,4-oxadiazol-3-yl)-1H-benzo[d][1,2,3]triazol-1-yl)propan-1-ol] | >6.5 | <5 | – | –
CCC1(CC)CC(=O)c2cc(-c3nc(-c4cncc(NC(C)=O)c4)no3)ccc2O1 [Compound 538, N-(5-(5-(2,2-diethyl-4-oxochroman-6-yl)-1,2,4-oxadiazol-3-yl)pyridin-3-yl)acetamide] | >6.5 | >5 | – | –
COc1cc(-c2noc(-c3ccc4c(c3)nnn4C3CCCC3)n2)ccn1 [Compound 281, 1-cyclopentyl-5-[3-(2-methoxypyridin-4-yl)-1,2,4-oxadiazol-5-yl]-1H-1,2,3-benzotriazole] | <6.5 | <5 | < 75 | < 75
CCC1(CC)CC(=O)c2cc(-c3nc(-c4ccnc(C)c4)no3)ccc2O1 [Compound 315, 2,2-diethyl-6-(3-(2-methylpyridin-4-yl)-1,2,4-oxadiazol-5-yl)chroman-4-one] | >6.5 | >5 | > 75 | < 75
